Results taken from ChEMBL document CHEMBL1201862, “PubChem BioAssay data set” (2004).
Calls of active or inactive are those of the source.

Key:
[1] = MC4R antagonists, dose response, counter-screen for LGR2 antagonist project, cell-based, plate reader, cherry pick (AID 743444); assay type: functional;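 note: transfected HEK 293 cells stimulated with alpha-MSH peptide; potency of inhibitors of the alpha-MSH evoked signal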
[2] = LGR2 antagonists, dose response, cell-based, HEK293, CRE-luciferase reporter, cherry pick, set 2 (AID 743343); assay type: functional;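 note: transfected cells were stimulated with diluted bursicon conditioned medium after compound addition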
HEK293 = assay: inhibitors of LMP1-driven NF-kB reporter, dose response, cell-based, HEK293, luciferase, cherry-pick (AID 588343); assay type: functional; details: Homo sapiens
[3] = A549 cell cytotoxicity, dose response, cytotoxicity control, plate reader, cherry-pick, antagonist series (AID 743412); assay type: functional, cell-based
[4] = T. cruzi growth inhibition in host cells, dose response, cell-based, plate reader, dry powder, set 2 (AID 652275); assay type: functional
[5] = CEM21 lymphoblast cell cytotoxicity, dose response, cytotoxicity control for viral fusion inhibitor project, CellTiter-Glo luminescence, cherry-picked (AID 652042); assay type: functional, cell-based;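 note: potency for signal decrease meaning cytotoxicity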
fMet-Leu-Phe receptor = fMet-Leu-Phe receptor (Homo sapiens, UniProt P21462); assay: FPR ligands, dose response (AID 519); assay type: functional
Chain of fMet-Leu-Phe receptor (P21462 whole entry): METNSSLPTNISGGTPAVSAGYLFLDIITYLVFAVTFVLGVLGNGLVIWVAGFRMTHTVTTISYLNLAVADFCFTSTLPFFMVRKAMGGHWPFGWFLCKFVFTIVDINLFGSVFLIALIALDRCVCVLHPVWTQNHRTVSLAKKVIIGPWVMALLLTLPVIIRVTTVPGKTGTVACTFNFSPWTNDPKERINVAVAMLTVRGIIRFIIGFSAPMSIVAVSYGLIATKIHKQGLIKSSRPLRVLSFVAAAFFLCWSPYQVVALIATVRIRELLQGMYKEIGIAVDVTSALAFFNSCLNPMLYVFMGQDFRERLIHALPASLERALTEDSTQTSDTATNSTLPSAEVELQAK

[6] = target: FAD-linked sulfhydryl oxidase ALR (Homo sapiens, UniProt P55789); assay: inhibitors of human ALR sulfhydryl oxidase, dose response, biochemical, H2O2 detection, luminescence, cherry-pick (AID 493248)
Chain of FAD-linked sulfhydryl oxidase ALR (P55789 whole entry): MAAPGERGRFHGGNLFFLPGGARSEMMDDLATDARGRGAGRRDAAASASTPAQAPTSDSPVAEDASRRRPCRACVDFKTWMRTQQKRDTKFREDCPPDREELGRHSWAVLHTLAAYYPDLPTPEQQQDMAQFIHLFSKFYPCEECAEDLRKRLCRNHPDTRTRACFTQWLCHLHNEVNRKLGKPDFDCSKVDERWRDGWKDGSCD

[7] = target: T1, Corticotropin-releasing factor receptor 2/Corticotropin-releasing factor-binding protein (Homo sapiens, UniProt P24387+Q13324); assay: activators of CRF receptor 2 with binding protein – uHTS hits, confirmation (AID 602473); assay type: functional; details: read-out: EC50_Mean
T1 sequence (Q13324 whole entry): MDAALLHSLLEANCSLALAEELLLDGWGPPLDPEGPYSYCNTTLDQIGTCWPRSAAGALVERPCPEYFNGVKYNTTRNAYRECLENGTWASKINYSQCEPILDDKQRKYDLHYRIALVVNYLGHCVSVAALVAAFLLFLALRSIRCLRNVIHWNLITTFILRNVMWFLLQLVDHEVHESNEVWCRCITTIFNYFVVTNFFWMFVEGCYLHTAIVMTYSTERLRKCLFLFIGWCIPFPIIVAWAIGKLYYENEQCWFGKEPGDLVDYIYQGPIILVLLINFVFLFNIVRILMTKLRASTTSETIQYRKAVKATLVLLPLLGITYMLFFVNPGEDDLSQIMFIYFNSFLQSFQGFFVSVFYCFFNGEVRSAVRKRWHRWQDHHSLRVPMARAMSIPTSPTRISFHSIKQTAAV
T1 sequence (P24387 whole entry): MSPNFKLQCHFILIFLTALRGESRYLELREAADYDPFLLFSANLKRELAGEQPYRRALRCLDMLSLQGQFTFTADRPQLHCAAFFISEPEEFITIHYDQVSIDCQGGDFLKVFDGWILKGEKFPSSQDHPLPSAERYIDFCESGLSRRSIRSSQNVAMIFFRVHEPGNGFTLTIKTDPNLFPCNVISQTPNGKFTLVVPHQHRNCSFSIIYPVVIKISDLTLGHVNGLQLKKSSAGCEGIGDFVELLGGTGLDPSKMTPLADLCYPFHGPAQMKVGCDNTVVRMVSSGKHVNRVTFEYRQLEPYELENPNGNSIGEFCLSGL

[8] = target: T1, Corticotropin-releasing factor receptor 2/Corticotropin-releasing factor-binding protein; assay: Dose Response confirmation of uHTS hits for small molecule antagonists of the CRF-binding protein and CRF-R2 receptor complex.; assay type: functional; details: read-out: IC50_Mean
Albumin = Albumin (Bos taurus, UniProt P02769); assay: Counterscreen for inhibitors of T-cell receptor (TCR)-CD3 interaction: Fluorescence-based biochemical high throughput dose response assay to identify inhibitors of T-cell receptor (TCR)-CD3 interaction using a TAMRA-labeled BSA probe.; assay type: functional
Chain of Albumin (P02769 whole entry): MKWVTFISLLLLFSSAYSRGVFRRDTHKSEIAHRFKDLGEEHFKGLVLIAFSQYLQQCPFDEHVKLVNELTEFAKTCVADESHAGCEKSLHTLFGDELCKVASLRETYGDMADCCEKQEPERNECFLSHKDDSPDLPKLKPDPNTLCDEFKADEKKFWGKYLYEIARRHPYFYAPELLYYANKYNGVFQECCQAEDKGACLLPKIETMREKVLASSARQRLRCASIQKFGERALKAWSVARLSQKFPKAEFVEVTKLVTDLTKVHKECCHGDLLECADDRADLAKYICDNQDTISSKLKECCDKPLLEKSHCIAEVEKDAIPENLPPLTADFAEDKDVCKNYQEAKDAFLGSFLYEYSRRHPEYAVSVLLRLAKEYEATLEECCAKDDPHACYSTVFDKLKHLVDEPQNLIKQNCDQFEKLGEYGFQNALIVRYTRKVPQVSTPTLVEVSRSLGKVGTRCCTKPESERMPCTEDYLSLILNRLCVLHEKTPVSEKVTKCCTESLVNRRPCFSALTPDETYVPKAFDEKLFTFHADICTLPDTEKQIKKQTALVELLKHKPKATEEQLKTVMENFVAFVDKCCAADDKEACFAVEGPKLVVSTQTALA

[9] = human group III sPLA2 inhibitors, dose response, biochemical, QFRET, IC50 (AID 743457);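 note: green fluorescence rise as the enzyme cleaves BODIPY PC-A2 in liposomes; potency for inhibition of the enzyme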
[10] = target: Tyrosyl-DNA phosphodiesterase 2 (Homo sapiens, UniProt O95551); assay: human TDP2 enzyme inhibitors, dose response, biochemical, epi absorbance, IC50 (AID 743297)
Chain of Tyrosyl-DNA phosphodiesterase 2 (O95551 whole entry): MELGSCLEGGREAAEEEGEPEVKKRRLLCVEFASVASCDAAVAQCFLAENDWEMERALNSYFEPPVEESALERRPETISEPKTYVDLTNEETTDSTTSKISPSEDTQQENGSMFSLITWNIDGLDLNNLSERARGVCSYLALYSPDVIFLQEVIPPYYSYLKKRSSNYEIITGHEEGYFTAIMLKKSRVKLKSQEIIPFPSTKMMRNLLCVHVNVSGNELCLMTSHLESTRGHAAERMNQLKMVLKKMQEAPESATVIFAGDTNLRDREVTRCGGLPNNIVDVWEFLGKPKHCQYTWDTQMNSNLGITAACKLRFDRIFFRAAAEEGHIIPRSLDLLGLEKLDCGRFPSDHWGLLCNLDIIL

[11] = C. albicans growth with fluconazole, confirmation, fluorescence, retest (AID 2467); assay type: functional, cell-based
[12] = target: T2, Kappa-type opioid receptor (Homo sapiens, UniProt P41145); assay type: functional
T2 sequence (P41145 whole entry): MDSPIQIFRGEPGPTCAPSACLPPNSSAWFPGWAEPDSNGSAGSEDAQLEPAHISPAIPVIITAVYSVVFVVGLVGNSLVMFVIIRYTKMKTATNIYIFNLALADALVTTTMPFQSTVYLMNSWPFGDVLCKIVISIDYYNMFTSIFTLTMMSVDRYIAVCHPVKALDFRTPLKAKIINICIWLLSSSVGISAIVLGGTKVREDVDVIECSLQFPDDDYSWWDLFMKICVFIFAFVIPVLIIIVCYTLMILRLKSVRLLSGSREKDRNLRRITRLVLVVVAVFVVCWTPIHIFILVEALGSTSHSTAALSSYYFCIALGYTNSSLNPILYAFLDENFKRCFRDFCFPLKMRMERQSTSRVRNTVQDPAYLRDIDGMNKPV

[13] = target: T3, Serine/threonine-protein phosphatase (Candida dubliniensis (strain CD36 / CBS 7987 / NCPF 3949 / NRRLY-17841) (Yeast), UniProt B9W6M3); assay: calcineurin pathway inhibitors in yeast reporter, dose response, S. cerevisiae, CDRE-lacZ, luminescence, secondary (AID 2388); assay type: functional, cell-based;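 note: yeast reporter cells carrying a calcineurin-responsive lacZ construct stimulated with calcium chloride; luminescent beta-galactosidase reporter signal in whole cells rather than isolated phosphatase activity; potency for inhibition where a drop in reporter signal means calcineurin blockade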
T3 sequence (B9W6M3 whole entry): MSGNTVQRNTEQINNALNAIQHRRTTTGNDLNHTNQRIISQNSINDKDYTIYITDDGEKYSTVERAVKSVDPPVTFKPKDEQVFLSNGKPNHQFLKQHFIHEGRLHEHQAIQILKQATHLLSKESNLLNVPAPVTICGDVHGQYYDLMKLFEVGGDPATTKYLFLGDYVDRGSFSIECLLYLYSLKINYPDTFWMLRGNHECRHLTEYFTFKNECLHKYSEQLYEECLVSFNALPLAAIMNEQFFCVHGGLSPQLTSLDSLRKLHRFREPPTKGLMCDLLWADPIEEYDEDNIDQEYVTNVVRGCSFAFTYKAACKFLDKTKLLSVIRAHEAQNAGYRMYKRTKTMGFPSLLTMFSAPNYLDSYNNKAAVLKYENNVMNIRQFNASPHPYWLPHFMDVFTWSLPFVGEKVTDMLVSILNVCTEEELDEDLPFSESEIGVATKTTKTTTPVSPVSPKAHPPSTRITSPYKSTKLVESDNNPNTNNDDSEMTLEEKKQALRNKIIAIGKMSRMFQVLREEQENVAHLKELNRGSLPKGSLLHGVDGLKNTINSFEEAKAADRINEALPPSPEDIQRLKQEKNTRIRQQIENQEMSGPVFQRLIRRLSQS

[14] = NIH-3T3 fibroblast cytotoxicity, dose response, cytotoxicity control, cell-based, fluorescence, Alamar Blue, secondary assay (AID 2327); assay type: functional;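 note: NIH-3T3 mouse fibroblasts cultured with fluconazole at 8 µg/mL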
[15] = target: Matrix metalloproteinase-14 (Homo sapiens, UniProt P50281); assay: Dose Response confirmation of uHTS hits for a small molecule inhibitors of MT1-MMP activation in a fluorescence assay set 1.; assay type: functional
Beta-galactosidase = Beta-galactosidase (Escherichia coli, UniProt Q8VNN2); assay type: functional
Chain of Beta-galactosidase (Q8VNN2 whole entry): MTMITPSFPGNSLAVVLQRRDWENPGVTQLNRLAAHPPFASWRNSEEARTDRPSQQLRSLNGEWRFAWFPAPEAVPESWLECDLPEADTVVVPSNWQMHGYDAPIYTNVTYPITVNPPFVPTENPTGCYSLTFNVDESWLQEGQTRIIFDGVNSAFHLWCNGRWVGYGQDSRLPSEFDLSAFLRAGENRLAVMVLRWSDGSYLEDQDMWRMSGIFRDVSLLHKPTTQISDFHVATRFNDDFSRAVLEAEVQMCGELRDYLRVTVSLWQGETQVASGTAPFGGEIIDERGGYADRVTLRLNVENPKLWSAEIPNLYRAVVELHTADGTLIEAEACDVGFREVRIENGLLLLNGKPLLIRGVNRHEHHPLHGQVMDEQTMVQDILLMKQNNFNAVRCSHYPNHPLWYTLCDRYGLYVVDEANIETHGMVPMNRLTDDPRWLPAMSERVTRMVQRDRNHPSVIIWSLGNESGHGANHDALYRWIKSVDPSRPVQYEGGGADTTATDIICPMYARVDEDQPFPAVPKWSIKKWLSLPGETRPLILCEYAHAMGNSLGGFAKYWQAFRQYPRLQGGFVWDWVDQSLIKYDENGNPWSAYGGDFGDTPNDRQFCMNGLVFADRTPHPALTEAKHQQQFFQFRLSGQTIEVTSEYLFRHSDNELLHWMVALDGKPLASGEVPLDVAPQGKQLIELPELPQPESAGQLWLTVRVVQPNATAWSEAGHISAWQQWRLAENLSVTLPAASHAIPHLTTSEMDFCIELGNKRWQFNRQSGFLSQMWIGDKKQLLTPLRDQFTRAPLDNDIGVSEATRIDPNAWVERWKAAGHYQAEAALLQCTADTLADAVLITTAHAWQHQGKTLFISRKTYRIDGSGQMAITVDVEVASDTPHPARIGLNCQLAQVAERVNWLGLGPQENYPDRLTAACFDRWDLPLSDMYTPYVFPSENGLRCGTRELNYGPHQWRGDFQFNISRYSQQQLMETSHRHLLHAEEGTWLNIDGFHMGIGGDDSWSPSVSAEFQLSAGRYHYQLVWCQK

[16] = test system: Streptococcus sp. 'group A'; assay: growth inhibition of control SK(-) GAS strain, dose response, counter-screen for streptokinase expression inhibitor project, luminescence, kanamycin, BacTiterGlo, confirmation (AID 1900); assay type: functional, organism-based
[17] = target: Heat shock protein HSP 90-alpha (Homo sapiens, UniProt P07900); assay type: functional, organism-based
Streptococcus = assay: Group A Streptococcus viability loss, dose response, counter-screen for streptokinase expression inhibitor project, luminescence, BacTiterGlo (AID 1915); assay type: functional, organism-based;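 note: potency for reduction of bacterial viability or growth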
[18] = target: ATP-dependent molecular chaperone HSP82 (Candida albicans (strain WO-1) (Yeast), UniProt C4YTQ8); assay: loss of DOC-induced GRE-beta-galactosidase reporter signal, dose response, Hsp90 inhibitor project, S. cerevisiae, luminescence (AID 2400); assay type: functional, cell-based;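 note: beta-galactosidase luminescence from glucocorticoid response element reporter as proxy for Hsp90 function; inhibitor potency where signal loss means Hsp90 inhibition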
Chain of ATP-dependent molecular chaperone HSP82 (C4YTQ8 whole entry): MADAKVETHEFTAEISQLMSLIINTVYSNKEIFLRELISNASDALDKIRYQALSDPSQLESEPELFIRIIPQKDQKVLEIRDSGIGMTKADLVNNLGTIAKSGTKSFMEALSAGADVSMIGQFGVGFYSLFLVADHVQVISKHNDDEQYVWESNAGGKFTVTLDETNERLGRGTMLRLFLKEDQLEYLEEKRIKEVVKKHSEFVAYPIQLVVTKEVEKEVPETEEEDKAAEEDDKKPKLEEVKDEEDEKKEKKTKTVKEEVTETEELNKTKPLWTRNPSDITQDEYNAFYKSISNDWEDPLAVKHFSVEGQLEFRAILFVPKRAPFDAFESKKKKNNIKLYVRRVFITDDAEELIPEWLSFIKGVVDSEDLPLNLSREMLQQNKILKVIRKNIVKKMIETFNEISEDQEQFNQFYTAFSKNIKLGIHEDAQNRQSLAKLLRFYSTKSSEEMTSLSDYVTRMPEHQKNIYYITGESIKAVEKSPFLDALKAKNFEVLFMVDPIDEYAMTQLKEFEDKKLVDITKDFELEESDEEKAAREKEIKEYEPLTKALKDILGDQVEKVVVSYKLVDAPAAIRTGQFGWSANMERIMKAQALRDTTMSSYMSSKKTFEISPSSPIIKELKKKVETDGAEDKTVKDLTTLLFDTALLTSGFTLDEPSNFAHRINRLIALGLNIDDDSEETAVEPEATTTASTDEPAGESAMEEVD

[19] = target: T2, Kappa-type opioid receptor; assay type: functional; remark: listed apart in the source
Vero = assay: cells; assay type: functional; details: Chlorocebus sabaeus
[20] = target: T4, Oxysterols receptor LXR-beta (Homo sapiens, UniProt P55055); assay type: functional, cell-based;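 note: agonist activity at LXR measured by a cell-based luminescence readout across a dose range, run as a counterscreen for daf-12 agonists; HEK293 cells with Gal4-LXR fusion and GAL4-driven luciferase reporter; potency for activation of Gal4-LXR reporter so compounds are agonists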
T4 sequence (P55055 whole entry): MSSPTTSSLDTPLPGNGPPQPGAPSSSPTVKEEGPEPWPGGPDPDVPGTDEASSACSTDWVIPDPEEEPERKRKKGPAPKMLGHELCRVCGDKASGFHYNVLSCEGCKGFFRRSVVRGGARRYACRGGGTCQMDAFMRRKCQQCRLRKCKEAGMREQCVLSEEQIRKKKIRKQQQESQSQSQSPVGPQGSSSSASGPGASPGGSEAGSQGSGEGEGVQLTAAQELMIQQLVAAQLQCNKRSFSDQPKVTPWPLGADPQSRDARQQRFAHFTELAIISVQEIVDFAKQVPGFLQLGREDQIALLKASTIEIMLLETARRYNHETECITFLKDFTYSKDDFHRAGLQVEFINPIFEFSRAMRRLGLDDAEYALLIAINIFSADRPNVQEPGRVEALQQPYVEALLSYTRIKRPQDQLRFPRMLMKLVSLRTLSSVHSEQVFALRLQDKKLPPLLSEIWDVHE

## O=C(Nc1ccc(N2CCOCC2)cc1)c1cnccn1
[1]
  AC50: 3.9 µM (active)
[2]
  AC50: 4.37 µM (active)
HEK293
  AC50: 2.09 µM (active)
[3]
  AC50: > 52 µM (inactive)

## COc1cccc(-c2ccc([C@H]3[C@H](CO)N4CCCCN(CC5CCOCC5)C[C@@H]34)cc2)c1
[4]
  AC50: 1.88 µM (active)

## Cc1ccc(NC(=O)c2ccc(OCC3CCCO3)cc2)cc1Cl (configuration not stated)
[5]
  AC50: 50 µM (active)

## Cc1ccc(Nc2ccc(C(=O)O)cc2N)cc1
fMet-Leu-Phe receptor
  Ki: > 66.7 µM (inactive)
[6]
  AC50: 0.246 µM (active)
[7]
  EC50: > 53 µM (inactive)
[8]
  IC50: > 47.1 µM (inactive)

## Cc1ccccc1NC(=O)NNC(=O)c1ccc2ccccc2c1O
Albumin
  IC50: > 94.2 µM (inactive)
[9]
  IC50: > 122 µM (inactive)

## O=C(NC(=S)Nc1ccccc1N1CCCC1)c1ccco1
[10]
  IC50: > 128 µM (inactive)

## COc1ccc(C)cc1N=Nc1ccc(O)c2ncccc12
[11]
  EC50: 0.598 µM (active)
[12]
  IC50: > 31.5 µM (inactive)
[13]
  EC50: > 180 µM (inactive)
[14]
  EC50: 11.1 µM (active)
[15]
  IC50: 23.8 µM (inactive)
Beta-galactosidase
  EC50: 23.6 µM (active)
[16]
  EC50: 0.357 µM (active)
[17]
  AC50: 1.57 µM (active)
Streptococcus
  EC50: 2.67 µM (active)
[18]
  EC50: 2.92 µM (active)
[19]
  IC50: > 32 µM
Vero
  CC50: 5.17 µM (active)

## CCCn1/c(=N/C(=O)c2ccco2)c(C(=O)OCC)cc2c(=O)n3ccccc3nc21
[20]
  EC50: > 67.5 µM (inactive)

## CCOc1ccc(-c2c(=O)n(O)c3ccccc3[n+]2[O-])cc1
[20]
  EC50: > 67.5 µM (inactive)
